Experimental data as given in publication PMC10180349 (Molecules, 2023).

Legend:
MDA-MB-231 cells [1] = experiment: Cell cycle analysis (PI, flow cytometry); format: cell-based, Human; details: 48 h
Experimental: Cell cycle assay was performed using the DNA Content Quantitation Assay (Solarbio, Beijing, China). […] Then, the fixed cells were incubated with RNase A solution at 37 °C for 30 min and stained with PI in the dark for 30 min at 4 °C. The red fluorescence was detected using a flow cytometer (BD FACSCalibur) at 488 nm and analyzed by FlowJo Software (Tree Star Inc, Ashland, OR, USA). The PTX-treated group was set as a positive control.

MCF-7 [2] = experiment: cells; details: Homo sapiens, MCF7, 48 h
[3] = Solubility experiment in water; details: for appearance of sample in water (solubility by photograph): diluted to 5 mg/mL by water
MDA-MB-231 cells [4] = experiment: Transmission electron microscopy of treated cells; format: cell-based, Human; details: MDA-MB-231, 0.1 nM, 48 h
Experimental: Ultrathin sections were isolated, stained with uranyl acetate and lead citrate for 10 min, and finally observed through the Hitachi H-7650 transmission electron microscope (Tokyo, Japan). The PTX-treated group was used as a positive control.

MDA-MB-231 cells [5] = experiment: Annexin V-FITC/PI flow cytometry apoptosis assay; format: cell-based, Human; details: 48 h
Experimental: Cell apoptosis analysis was performed according to the manufacturer’s protocol of the Annexin V-FITC Detection kit (Beyotime, Shanghai, China). […] Finally, the samples were tested by flow cytometer (BD FACSCelesta) and analyzed using FlowJo Software (Tree Star Inc., Ashland, OR, USA). The PTX-treated group was used as a positive control.

[6] = Acute-toxicity experiment, single dose via tail vein
[7] = test system: microtubules in MDA-MB-231 cells; experiment: Immunofluorescence staining of microtubules (α-tubulin antibody); format: cell-based, Human; details: MDA-MB-231, 0.1 nM, 48 h
Experimental: Cells were fixed with 4% paraformaldehyde for 20 min, permeabilized with 0.1%Triton X-100 for 5 min, and blocked with 1% BSA for 1.5 h. Next, cells were incubated with α-tubulin antibody (1:400 Abcam, AB52866) at 4 °C overnight, followed by the Alexa Fluor 488 conjugated goat anti-rabbit IgG secondary antibody (1:300, ZF-0511, Zhongshan Goldenbridge Biotechnology, Beijing, China). Finally, nuclei were stained with DAPI for 4 min. Stained cells were observed using a laser confocal microscope (LSM700; Zeiss, Gottingen, Germany). The PTX-treated group was used as a positive control.

[8] = test system: MDA-MB-231 xenograft tumor tissue; experiment: TUNEL assay of tumor slides; format: in vivo, Female BALB/c nude mice; details: PTX-TTHA 6.87-13.73 mg/kg q3d; PTX 10 mg/kg q7d
Experimental: The tumor slides of MDA-MB-231 xenograft mice were deparaffinized and rehydrated as per the method described above. Then, the TUNEL assay was performed according to the manufacturer’s instructions. Briefly, slides were permeabilized with proteinase K for 20 min and blocked with 3% H2O2 for 10 min. After washing, slides were incubated with Biotin labeling solution for 1 h, and the nucleus was counterstained with DAPI for 1 min. The localized red fluorescence of the apoptotic cells was visualized by fluorescence microscopy. Two experienced pathologists randomly selected 10 (×200) fields for every slide and then analyzed them. The percentage of TUNEL-positive cells among total cells was semi-quantitatively measured with the Image-J software.

physchem = details: water
MDA-MB-231 [9] = experiment: cells; details: Homo sapiens, MDA-MB-231, 48 h
4T1 [10] = experiment: cells; details: Mus musculus, 4T1, 48 h
[11] = cited from earlier work
MCF-7 [12] = details: SI = IC50 MCF 10A/IC50 MCF-7, 48 h
MCF 10A = format: cell-based; details: Homo sapiens, 48 h
MDA-MB-231 [13] = details: SI = IC50 MCF 10A/IC50 MDA-MB-231, 48 h
4T1 [14] = details: SI = IC50 MCF 10A/IC50 4T1, 48 h
Ki-67 = Ki-67 immunohistochemical staining of tumor slides; format: in vivo, Female BALB/c nude mice; details: 6.87, 10.30, 13.73 mg/kg q3d, p < 0.01
Experimental: The tumor slides of MDA-MB-231 xenograft mice were deparaffinized and rehydrated as per the method described above. Next, slides were boiled in citrate antigen retrieval solution for 2 min and then blocked with 3% H2O2 for 10 min. After washing, slides were incubated with primary Ki-67 antibody (1:400, Abcam AB15580) at 4 °C overnight, followed by incubation with the goat anti-rabbit HRP-conjugated secondary antibody (1:500) for 1 h at RT. Finally, slides were stained with DAB chromogenic reagent and hematoxylin. Images were visualized using a Zeiss microscope (Carl Zeiss Meditec AG, Jena, Germany). Three separate visual fields were randomly selected from each slice. The percentage of the positive area was semi-quantitatively analyzed with the Image-J software.

[15] = test system: MDA-MB-231 xenograft breast tumor model; experiment: In vivo antitumor assay; details: medium dose 10.30 mg/kg (MPTX-TTHA), q3d, tail vein, 21 days
caspase-3 = experiment: Caspase-3 activity assay in cell lysates; format: cell-based, Human; details: MDA-MB-231, 0.1 and 1 nM, 48 h
Experimental: The activity of caspase-3 was performed according to the manufacturer’s protocol of the Caspase-3 Activity Assay Kit (Beyotime, Shanghai, China). […] Then, the absorbance was measured at 405 nm using a Microplate Reader (Thermo 3001, Vantaa, Finland), and the protein concentration was obtained via Bradford assay. Data were normalized for the protein content of each supernatant and expressed as the relative value compared to the control. The PTX-treated group was used as a positive control.

Bax = experiment: Western blot of xenograft tumor tissues; format: in vivo, Female BALB/c nude mice; details: 6.87, 10.30, 13.73 mg/kg q3d, dose-dependent, p < 0.01
Experimental: (§1) The removed tumor tissues were cut into pieces and homogenized in RIPA lysis buffer (Cat#P0013B; Beyotime, Shanghai, China) containing PMSF protease inhibitor (Cat#ST506; Beyotime, Shanghai, China) (RIPA: PMSF = 100:1) using a glass homogenizer on ice for 30 min. The lysates were harvested by centrifugation (12,000 rpm) at 4 °C for 5 min. The protein concentrations were measured by BCA Protein Assay Kit (Beyotime, Shanghai, China) and boiled at 95 °C for 5 min. Then, equal amounts of proteins (30 μg) from five groups were separated by 10% SDS-PAGE and transferred to PVDF membranes (EMD Millipore, Billerica, MA, USA). The membranes were blocked with 5% non-fat milk for 2 h and washed with TBST buffer. Next, membranes were incubated with primary antibodies (β-actin, cleaved caspase-3, Bax, Bcl-2) at a dilution of 1:1000 at 4 °C overnight, followed by the goat anti-rabbit HRP-conjugated secondary antibody (1:5000) for 2 h at room temperature. β-actin was used as an internal control. Protein bands were visualized by a chemiluminescence detection system (Bio-Rad, Hercules, CA, USA) and quantitated using the Image-J software.

Bcl-2 = experiment: Western blot of xenograft tumor tissues; format: in vivo, Female BALB/c nude mice; details: 6.87, 10.30, 13.73 mg/kg q3d, dose-dependent, p < 0.01
Experimental: as §1

cleaved caspase-3 = experiment: Western blot of xenograft tumor tissues; format: in vivo, Female BALB/c nude mice; details: 6.87, 10.30, 13.73 mg/kg q3d, dose-dependent, p < 0.01
Experimental: as §1

[16] = Organ-body indices and signs of toxicity in the xenograft model; details: q3d, 3 weeks

## CC(=O)O[C@H]1C(=O)[C@@]2(C)[C@H]([C@H](OC(=O)c3ccccc3)[C@]3(O)C[C@H](OC(=O)[C@H](O)[C@@H](NC(=O)c4ccccc4)c4ccccc4)C(C)=C1C3(C)C)[C@]1(OC(C)=O)CO[C@@H]1C[C@@H]2O [PTX, Paclitaxel, reference compound]
MDA-MB-231 cells [1]; 0.1 nM, control 8.74 ± 0.60%
  cells in G2/M phase: 24.22 ± 0.70%
MCF-7 [2]
  IC50: 9.99 ± 0.94 nM
[3]
  appearance of sample in water (solubility by photograph): almost insoluble in water
MDA-MB-231 cells [4]
  morphological changes of apoptosis (TEM): remarkable cellular apoptosis-related characteristics were observed
MDA-MB-231 cells [5]; 0.1 nM, control 2.17% ± 0.76%
  cell apoptosis rate: 29.57% ± 3.31
[6]; 20 mg/kg CrEL paclitaxel, Taxol (PTX), day 3, p < 0.001
  ALT, AST, Scr, WBC and NEUT values compared with controls: significantly altered
[7]
  microtubule fluorescence intensity compared with the control group: enhanced fluorescence intensity of microtubules
[8]
  TUNEL signal of apoptotic cells in tumor tissue: strong red fluorescent signal
physchem
  solubility: < 0.7 µg/mL
MDA-MB-231 [9]
  IC50: 8.68 ± 0.75 nM
4T1 [10]
  IC50: 9.45 ± 1.34 nM
[11]
  solubility in water: 0.3 to 0.5 µg/mL

## CC(=O)O[C@H]1C(=O)[C@@]2(C)[C@H]([C@H](OC(=O)c3ccccc3)[C@]3(O)C[C@H](OC(=O)[C@H](OC(=O)CN(CCN(CCN(CCN(CC(=O)O)CC(=O)O)CC(=O)O)CC(=O)O)CC(=O)O)[C@@H](NC(=O)c4ccccc4)c4ccccc4)C(C)=C1C3(C)C)[C@]1(OC(C)=O)CO[C@@H]1C[C@@H]2O [PTX-TTHA, 3,6,9,12-Tetraazatetradecanedioic acid, 3,6,9,12-tetrakis(carboxymethyl)-1-[2-(benzoylamino)-1-[[[6,12b-bis(acetyloxy)-12-(benzoyloxy)-2a,3,4,4a,5,6,9,10,11,12,12a,12b-dodecahydro-4,11-dihydroxy-4a,8,13,13-tetramethyl-5-oxo-7,11-methano-1H-cyclodeca [3, 4]benz [1,2-b]oxet-9-yl]oxy]carbonyl]-2-phenylethyl] ester]
MDA-MB-231 cells [1]; 0.1 nM, control 8.74 ± 0.60%
  cells in G2/M phase: 23.06 ± 0.92%
MDA-MB-231 cells [1]; 1 nM
  cells in G2/M phase: 51.40% ± 0.45
MCF-7 [12]
  selectivity index (SI): 23.19
MCF 10A
  IC50: 367 ± 8.2 nM
MCF-7 [2]
  IC50: 15.8 ± 1.04 nM
MDA-MB-231 [13]
  selectivity index (SI): 28.97
4T1 [14]
  selectivity index (SI): 21.36
Ki-67
  Ki-67 expression in tumor tissues compared with the control group: significantly reduced
[3]
  appearance of sample in water (solubility by photograph): completely clear
[3]; water
  water solubility, fold higher than that of paclitaxel: about 7140 fold
MDA-MB-231 cells [4]
  morphological changes of apoptosis (TEM): remarkable cellular apoptosis-related characteristics were observed
[15]
  tumor inhibition rate: ~70.51%
MDA-MB-231 cells [5]; 0.1 nM, control 2.17% ± 0.76%
  cell apoptosis rate: 30.4% ± 3.61
MDA-MB-231 cells [5]; 1 nM
  cell apoptosis rate: 50.5% ± 2.19
[6]; 138.6 mg/kg, single dose
  histopathology of main organs (H&E): No histological alterations were observed
[6]; 138.6 mg/kg, single dose, day 2, normal thereafter
  body weight change compared with controls: slight weight loss
[6]; 138.6 mg/kg, single dose, day 3 and day 14
  blood biochemical and hematological test index values compared with control: no significant differences
[6]; 138.6 mg/kg, single dose, tail vein, 14 days
  toxic signs after administration: none of these toxic signs were observed
[6]; limit dose 138.6 mg/kg, i.v.
  acute toxicity on vital organs, hematological, and biochemical parameters: no sign of acute toxicity
[7]
  microtubule fluorescence intensity compared with the control group: enhanced fluorescence intensity of microtubules
caspase-3
  caspase-3 activity compared with the control group: significantly activated
Bax
  Bax expression level in tumor compared with the control group: significantly upregulated
Bcl-2
  Bcl-2 expression level in tumor compared with the control group: significantly downregulated
Cleaved caspase-3
  cleaved caspase-3 expression level in tumor compared with the control group: significantly upregulated
[16]; 6.87, 10.30, 13.73 mg/kg, tail vein
  signs of toxicity during treatment: No noticeable signs of toxicity were observed
[16]; HPTX-TTHA, 13.73 mg/kg
  organ-body index, Heart: 5.56 ± 0.49 mg/g
  organ-body index, Kidney: 16.09 ± 0.50 mg/g
  organ-body index, Liver: 63.73 ± 5.63 mg/g
  organ-body index, Lung: 7.28 ± 0.73 mg/g
  organ-body index, Spleen: 6.20 ± 0.65 mg/g
[16]; LPTX-TTHA, 6.87 mg/kg
  organ-body index, Heart: 5.56 ± 0.63 mg/g
  organ-body index, Kidney: 16.03 ± 0.49 mg/g
  organ-body index, Liver: 63.63 ± 4.54 mg/g
  organ-body index, Lung: 7.29 ± 0.79 mg/g
  organ-body index, Spleen: 6.35 ± 0.51 mg/g
[16]; MPTX-TTHA, 10.30 mg/kg
  organ-body index, Heart: 5.49 ± 0.15 mg/g
  organ-body index, Kidney: 16.05 ± 0.47 mg/g
  organ-body index, Liver: 63.20 ± 5.17 mg/g
  organ-body index, Lung: 7.16 ± 0.61 mg/g
  organ-body index, Spleen: 6.16 ± 1.05 mg/g
[8]
  TUNEL signal of apoptotic cells in tumor tissue: strong red fluorescent signal
physchem; thermodynamic from solid
  solubility: > 5000 µg/mL
MDA-MB-231 [9]
  IC50: 12.7 ± 1.34 nM
4T1 [10]
  IC50: 17.2 ± 1.96 nM
